For test [1], the system named is Rac. As to the kind of experiment: Rac-GTP pull-down, HRG-treated MCF-7 cells. The class given is cell-based, human. Particulars: HRG 100 ng/ml, 5 min, pharmacological inhibitor. The method, then:
FIG. […] Rac-GTP levels were determined by a Rac-GTP pull-down assay of lysates of the treated cells. […]
As described above, Gβγ subunits are known to activate PI3Kγ. As Rac activation by HRG is affected by PTX as shown in Example 10, the involvement of PI3Kγ in the response was investigated.
To further investigate the role of PI3Kγ, PI3Kγ depleted MCF-7 cell lines were generated using PI3Kγ (#1 and #2) and non-target sequence (NTS) control shRNA lentiviruses (Sigma) (FIG. 16B).
To determine whether CXCR4 is involved in HRG responses, CXCR4 expression was knocked down using RNAi in MCF-7 cells. […] Such a mechanism has important implications in tumorigenesis and metastatic dissemination.

In another test the test system is Rac1. As to the kind of experiment: Rac1-GTP GST pull down, HRG-treated MCF-10A cells. It counts as cell-based, human. Particulars: serum-starved MCF-10A cells, HRG 100 ng/ml 5 min, pretreatment (1 h; PTX 24 h). The method, then:
The image of the immunoblot depicts Rac1-GTP levels as determined by a GST pull down assay of serum-starved MCF-10A cells treated with HRG (100 ng/ml, 5 min), with or without pretreatment with PI3K inhibitor wortmannin, EGFR inhibitor AG1478, PI3Kγ inhibitor 5-quinoxalin-6-ylmethylene-thiazolidine-2,4-dione (1 mM, 1 h), or PTX (24 h) (FIG. 17).

The next test has as its system P-Rex1. The experiment in a line: P-Rex1 sub-cellular localization in MCF-7 cells (fluorescence microscopy). The note with it: HRG 10 ng/mL 10 min, Wortmannin 1 μM, antibodies 10 μg/mL 1 hr. The class given is cell-based, human. As for the experimental part:
Cells were then fixed and stained with the antibody of Example 1 to detect P-Rex1 and subject to staining with a secondary Cy2-conjugated antibody, and visualized with fluorescence microscopy. […] (FIG. 12A and FIG. 12B).
To test whether this effect of HRG on P-Rex1 localization was dependent on PI3K, MCF-7 breast cancer cells were serum starved for 48 hours, treated for 10 minutes with HRG (10 ng/mL), with or without Wortmannin (1 μM), an anti-ErbB3 blocking antibody (10 μg/mL, 1 hr) or control IgG and stained and visualized (FIG. 12B).

In a further test the test system is T-47D cells. The experiment in a line: Membrane ruffles in T-47D cells. Particulars: T-47D cells treated with HRG or EGF. The class given is cell-based, human. The method, then: HRG is known to cause morphological changes, including the formation of lamellipodia and membrane ruffles.
FIG. 14E is a bar graph depicting reduced colony formation, in response to treatment with HRG (10 ng/mL), in the P-Rex1 depleted cell lines of FIG. 14A as compared to control cells.

Test [2] relates to Rac. As to the kind of experiment: Rac activation by HRG or EGF in breast cancer cell lines (GST-Raf-PBD pull-down). The class given is cell-based. The note with it: various breast cancer cell lines, HRG 10 ng/mL or EGF 100 ng/mL, 0-5 minutes, n=3.

These results are taken from US20110288151A1, “METHODS OF CHARACTERIZING BREAST CANCER AND IDENTIFYING TREATMENTS FOR SAME” (The Trustees of the University of Pennsylvania, priority 2008, published 2011).

As to `O=C1NC(=O)C(=Cc2ccc3nccnc3c2)S1` [5-quinoxalin-6-ylmethylene-thiazolidine-2,4-dione], the “Rac activation by HRG” value with Rac [1] is “dose-dependently reduced Rac activation by HRG”. Besides, the “sensitivity of Rac1 activation by HRG” value with Rac1 is reported as “insensitive”.

On to `COc1cc2ncnc(Nc3cccc(Cl)c3)c2cc1OC` [AG1478], for which the “sensitivity of Rac1 activation by HRG” value with Rac1 was “blocked Rac activation”.

`CC(C)(C)n1nc(-c2ccc(Cl)cc2)c2c(N)ncnc21` [PP2]: in the test with P-Rex1, the “effect on HRG-induced P-Rex1 localization” value was “did not have such an effect”.

On to “EGF: epidermal growth factor (NSDSECPLSHDGYCLHDGVCMYIEALDKYACNCVVGYIGERCQYRDLKWWELR; UniProt P01133 971-1023, looked up)”, for which the “ruffle formation on ligand treatment” value in the test on T-47D cells is “characteristic ruffles were observed”. In the test on Rac [2], the Rac activation result is given as “activate Rac”.
